According to patent publication US20230126447A1, “OCULAR DRUG DEPOT FOR COMPLEMENT-MEDIATED DISORDERS” (priority 2020, published 2023):
Like-named read-outs stand apart in the source and are kept apart here.

Test: Ocular tissue and plasma pharmacokinetics, 15 mg/kg single and BID oral, Dutch Belted rabbits (Example 3/5)
Type: in vivo
Conditions: for concentration at 0 h: Day 15, 0 h
Method: Study design including group designation and dose levels are outlined in Table 4. […] Fifteen Dutch Belted and 5 New Zealand White rabbits were used as un-dosed controls. […] The dose volume was 5 mL/kg/dose for all groups. Safety was assessed with toxicological and ophthalmic examinations including slit lamp biomicroscopy, indirect ophthalmoscopy, rebound tonometry, and ultrasonic corneal pachymetry.
Analyst® software (Version 1.6.2) was used to capture the LC-MS/MS data and integrate the peak areas. Calibration standards and QCs were prepared in a blank solution of 75%:25% acetonitrile:water (v:v), ranging from 10 ng/mL to 10,000 ng/mL. Matrix matched standard and QC samples were prepared by mixing 2 μL of standard or QC sample above with 18 μL of appropriate ocular tissue or plasma. The final calibration standards ranged from 1 ng/mL to 1000 ng/mL. All plasma, retina, choroid-RPE, optic nerve, and vitreous humor samples were analyzed in a single run. Iris-ciliary body samples were analyzed in two runs due to a need for sample dilution. […] Dilution QCs were prepared at 5000 ng/mL where appropriate. Two sets of standards were used to bracket the analytical run at the beginning and end of the run. Three sets of QCs were included the analytical runs. All concentrations in ocular matrices are reported as ng/g based on the assumed density of 1 g/mL.
1, 6, 24, 96, 168, and 240 hours post-dose on Day 15, with the eyes collected at the same time as blood sampling. A single blood sample was taken from Groups 4 and 5 at sacrifice. Plasma, vitreous humor (VH), retina, choroid-retina pigmented epithelium (Choroid-RPE), optic nerve (ON), and iris-ciliary body (I-CB) were analyzed by LC-MS/MS to quantify test article concentrations. The lower limit of quantitation (LLOQ) in plasma and vitreous humor was 1.0 ng/mL. The LLOQ was 6.0 ng/g in retina, Choroid-RPE, and I-CB and the optic nerve LLOQ was 15 ng/g, assuming tissue density of 1 g/mL where relevant.
Study design including group designation and dose levels are outlined in Table 18.

[1] = Dutch Belted, rabbit, vitreous humor, po, 15 mg/kg, Vitreous Humor, DB rabbit, 15 mg/kg BID, Day 15
[2] = Dutch Belted, rabbit, vitreous humor, po, 15 mg/kg, Vitreous Humor, DB rabbit, 15 mg/kg single dose, Day 1
[3] = plasma, DB rabbit, 15 mg/kg BID, Day 15
[4] = plasma, DB rabbit, 15 mg/kg single dose, Day 1
[5] = retina, DB rabbit, 15 mg/kg BID, Day 15
[6] = retina, DB rabbit, 15 mg/kg single dose, Day 1

`CC(=O)c1nn(CC(=O)N2C[C@H](F)C[C@H]2C(=O)Nc2cccc(Br)n2)c2ccc(-c3cnc(C)nc3)cc12` [Compound 1, (2S,4R)-1-(2-(3-Acetyl-5-(2-methylpyrimidin-5-yl)-1H-indazol-1-yl)acetyl)-N-(6-bromopyridin-2-yl)-4-fluoropyrrolidine-2-carboxamide] gave a concentration at 0 h (Dutch Belted, rabbit, retina, po, 15 mg/kg, DB rabbit, 15 mg/kg BID oral, read-out: Mean retina concentration) of 114 ng/g, a concentration at 1 h (Dutch Belted, rabbit, retina, po, 15 mg/kg, DB rabbit, 15 mg/kg BID oral, Day 15, 1 h, read-out: Mean retina concentration) of 576 ng/g and a concentration at 6 h (Dutch Belted, rabbit, retina, po, 15 mg/kg, DB rabbit, 15 mg/kg BID oral, Day 15, 6 h, read-out: Mean retina concentration) of 237 ng/g. The concentration at 24 h (Dutch Belted, rabbit, retina, po, 15 mg/kg, DB rabbit, 15 mg/kg BID oral, Day 15, 24 h, read-out: Mean retina concentration) was 74.3 ng/g, the concentration at 96 h (Dutch Belted, rabbit, retina, po, 15 mg/kg, DB rabbit, 15 mg/kg BID oral, Day 15, 96 h, read-out: Mean retina concentration) was 28.1 ng/g and the concentration at 168 h (Dutch Belted, rabbit, retina, po, 15 mg/kg, DB rabbit, 15 mg/kg BID oral, Day 15, 168 h, read-out: Mean retina concentration) was 36.5 ng/g. For the same molecule, the concentration at 240 h (Dutch Belted, rabbit, retina, po, 15 mg/kg, DB rabbit, 15 mg/kg BID oral, Day 15, 240 h, read-out: Mean retina concentration) was 25.3 ng/g, the concentration at 1 h (Dutch Belted, rabbit, retina, po, 15 mg/kg, DB rabbit, 15 mg/kg single oral dose, Day 1, 1 h, read-out: Mean retina concentration) was 145 ng/g and the concentration at 6 h (Dutch Belted, rabbit, retina, po, 15 mg/kg, DB rabbit, 15 mg/kg single oral dose, Day 1, 6 h, read-out: Mean retina concentration) was 29.6 ng/g. It also gave a concentration at 24 h (Dutch Belted, rabbit, retina, po, 15 mg/kg, DB rabbit, 15 mg/kg single oral dose, Day 1, 24 h, read-out: Mean retina concentration) of 24.7 ng/g, an MRT last (Dutch Belted, rabbit, retina, po, 15 mg/kg, retina, DB rabbit, 15 mg/kg BID, Day 15) of 71 h and a concentration at 0 h (Dutch Belted, rabbit, vitreous humor, po, 15 mg/kg, DB rabbit, 15 mg/kg BID oral, read-out: Mean Vitreous Humor concentration) of 3.27 ng/mL. The concentration at 1 h (Dutch Belted, rabbit, vitreous humor, po, 15 mg/kg, DB rabbit, 15 mg/kg BID oral, Day 15, 1 h, read-out: Mean Vitreous Humor concentration) was 15.4 ng/mL, the concentration at 6 h (Dutch Belted, rabbit, vitreous humor, po, 15 mg/kg, DB rabbit, 15 mg/kg BID oral, Day 15, 6 h, read-out: Mean Vitreous Humor concentration) was 6.45 ng/mL and the concentration at 1 h (Dutch Belted, rabbit, vitreous humor, po, 15 mg/kg, DB rabbit, 15 mg/kg single oral dose, Day 1, 1 h, read-out: Mean Vitreous Humor concentration) was 7.26 ng/mL. It also gave a concentration at 6 h (Dutch Belted, rabbit, vitreous humor, po, 15 mg/kg, DB rabbit, 15 mg/kg single oral dose, Day 1, 6 h, read-out: Mean Vitreous Humor concentration) of 3.66 ng/mL, an AUC(0-t) [1] of 64 ng·h/mL and an MRT last [1] of 2.23 h. It also gave a Cmax (Dutch Belted, rabbit, vitreous humor, po, 15 mg/kg, Vitreous Humor, DB rabbit, 15 mg/kg BID, Day 15, read-out: Cmax) of 15.4 ng/mL, an AUC(0-t) [2] of 30.9 ng·h/mL and an MRT last [2] of 2.48 h. For the same molecule, the Cmax (Dutch Belted, rabbit, vitreous humor, po, 15 mg/kg, Vitreous Humor, DB rabbit, 15 mg/kg single dose, Day 1, read-out: Cmax) was 7.26 ng/mL, the Tlast (Iris-Ciliary Body, DB rabbit, 15 mg/kg BID, Day 15) was 240 h and the Tlast (Iris-Ciliary Body, DB rabbit, 15 mg/kg single dose, Day 1) was 240 h. For the same molecule, the Tlast (Vitreous Humor, DB rabbit, 15 mg/kg BID, Day 15) was 6 h, the Tlast (Vitreous Humor, DB rabbit, 15 mg/kg single dose, Day 1) was 6 h and the AUClast [3] was 3990 ng·h/mL. For the same molecule, the Cmax [3] was 845 ng/mL, the MRTlast [3] was 6.51 h and the Tlast [3] was 96 h. It also gave an AUClast [4] of 1570 ng·h/mL, a Cmax [4] of 318 ng/mL and an MRTlast [4] of 5.58 h. The Tlast [4] was 24 h, the “C-RPE drug concentration at least 10 days following the last oral administration” value (rabbit, 15 mg/kg BID) was 340 ng/mL and the Cmax [5] was 576 ng/m. For the same molecule, the Tlast [5] was 240 h, the Cmax [6] was 145 ng/m and the MRTlast [6] was 7.83 h. The Tlast [6] was 24 h.
